Common to all, as to format: cell-based
In test [1] the test system is Penicillin(PC)sensitive S. aureus. Briefly: MIC by two-fold serial agar dilution in Mueller-Hinton agar, Gp-Ia. The note with it: for MIC: Staphylococcus aureus. On the procedure:
(§1) In the primary evaluation of the compounds of this invention, the Minimum Inhibitory Concentrations (MIC's) of the compounds were determined by the two-fold serial agar dilution method in Mueller-Hinton agar against 32 strains of test organisms in six groups.
Gp-Ia: Penicillin(PC)sensitive S. aureus
On the technique in general: Agar dilution tests growth on a series of plates holding different concentrations.

Test [2] has as its system CETresistant E. coli (3) and K. pneumoniae (2). Briefly: MIC by two-fold serial agar dilution in Mueller-Hinton agar, Gn-Ib. The note with it: for MIC: Escherichia coli, read-out: Geometric Mean of MIC. The protocol:
as §1
GnIb: CETresistant E. coli (3) and K. pneumoniae (2)

Test [3] has as its system Cephalothin(CET)sensitive E. coli (2 strains), K. pneumoniae (1) and P. mirabilis (2). Briefly: MIC by two-fold serial agar dilution in Mueller-Hinton agar, Gn-Ia. The settings on record: read-out: Geometric Mean of MIC. The protocol: as §1
GnIa: Cephalothin(CET)sensitive E. coli (2 strains), K. pneumoniae (1) an […]

For another test, the system named is P. aeruginosa. Nature of the test: MIC by two-fold serial agar dilution in Mueller-Hinton agar, Gn-III. The settings on record: for MIC: Pseudomonas aeruginosa, read-out: Geometric Mean of MIC. On the procedure:
as §1

A further test relates to PCresistant S. aureus. Nature of the test: MIC by two-fold serial agar dilution in Mueller-Hinton agar, Gp-Ib. The note with it: Gp-Ib, 5 strains, PC-resistant S. aureus; for MIC: Staphylococcus aureus, read-out: Geometric Mean of MIC. The protocol:
as §1
GpIb: PCresistant S. aureus

The subject of test [4] is M. morganii (1), E. cloacae (2) and S. marcescens (2). Briefly: MIC by two-fold serial agar dilution in Mueller-Hinton agar, Gn-II. The settings on record: for MIC: read-out: Geometric Mean of MIC. The protocol:
as §1
GnII: M. morganii (1), E. cloacae (2) and S. marcescens (2)

The mark [5] stands for this setting: Gp-Ia, 5 strains, PC-sensitive S. aureus, read-out: Geometric Mean of MIC.
The mark [6] stands for this setting: Gn-Ia, 5 strains, CET-sensitive.
Setting [7] is: Gn-Ib, 5 strains, CET-resistant.
Setting [8] is: Gn-III, 7 strains, P. aeruginosa.
[9] abbreviates: Gp-Ia, 5 strains, PC-sensitive S. aureus.

In brackets after ≈: the same amount, converted by molar mass. Read-outs that look alike come from different tables or passages of the source.

On to `CO/N=C(\C(=O)NC1C(=O)N2C(C(=O)[O-])=C(C[N+]3(C)CC=CC3)CS[C@H]12)c1csc(N)n1` (stereo partly drawn) [Example 11, 7-[(Z)-2-(2-Aminothiazol-4-yl)-2-methoxyiminoacetamido]-3-(1-methyl-3-pyrrolinio)methyl-3-cephem-4-carboxylate], for which the MIC (commonly the smallest concentration in the dilution series that meets the test's criterion for growth inhibition) in test [1] (setting [5]) is 0.78 µg/mL (≈ 1.63 µM); in test [2] it was 0.17 µg/mL (≈ 0.355 µM); in test [3] (setting [6]), 0.019 µg/mL (≈ 0.0397 µM); in the test on P. aeruginosa, 2.5 µg/mL (≈ 5.22 µM); in the test on PCresistant S. aureus, 2.1 µg/mL (≈ 4.39 µM); in test [4] (Gn-II, 5 strains), 0.15 µg/mL (≈ 0.313 µM).
In the case of `CO/N=C(\C(=O)NC1C(=O)N2C(C(=O)[O-])=C(C[N+]3(C)CCCC3C)CS[C@H]12)c1csc(N)n1` (stereo partly drawn) [Example 19, 7-[(Z)-2-(2-Aminothiazol-4-yl)-2-methoxyiminoacetamido]-3-(1,2-dimethylpyrrolidinio)methyl-3-cephem-4-carboxylate], the MIC in test [1] (setting [5]) was 1.4 µg/mL (≈ 2.83 µM); in test [2] (setting [7]) it was 0.27 µg/mL (≈ 0.546 µM); in test [3] (setting [6]), 0.078 µg/mL (≈ 0.158 µM); in the test on P. aeruginosa (setting [8]) it was 6 µg/mL (≈ 12.1 µM); in the test with PCresistant S. aureus, 3.8 µg/mL (≈ 7.68 µM); in test [4] (Gn-II, 5 strains), 0.27 µg/mL (≈ 0.546 µM).
On to `CO/N=C(\C(=O)NC1C(=O)N2C(C(=O)[O-])=C(C[N+]3(C)CCN(C)CC3)CS[C@H]12)c1csc(N)n1` (stereo partly drawn) [Example 5, 7-[(Z)-2-(2-Aminothiazol-4-yl)-2-methoxyiminoacetamido]-3-(1,4-dimethyl-1-piperazinio)methyl-3-cephem-4-carboxylate], for which the minimum inhibitory concentration (MIC) in test [1] (setting [5]) stood at 2.3 µg/mL (≈ 4.51 µM); in test [2] (setting [7]), 0.12 µg/mL (≈ 0.235 µM); in test [3] (setting [6]) it was 0.057 µg/mL (≈ 0.112 µM); in the test with P. aeruginosa, 3.6 µg/mL (≈ 7.06 µM); in the test with PCresistant S. aureus it was 4.7 µg/mL (≈ 9.22 µM); in test [4] (Gn-II, 5 strains) it was 0.78 µg/mL (≈ 1.53 µM).
With `CO/N=C(\C(=O)NC1C(=O)N2C(C(=O)[O-])=C(C[N+]3(C)Cc4ccccc4C3)CS[C@H]12)c1csc(N)n1` (stereo partly drawn) [Example 14, 7-[(Z)-2-(2-Aminothiazol-4-yl)-2-methoxyiminoacetamido]-3-[(2-methyl-2-benzo[c]pyrrolinio)methyl]-3-cephem-4-carboxylate], the MIC is 0.51 µg/mL (≈ 0.965 µM) in test [1] (setting [5]); 0.13 µg/mL (≈ 0.246 µM) in test [2] (setting [7]); 0.042 µg/mL (≈ 0.0795 µM) in test [3] (setting [6]); 7.7 µg/mL (≈ 14.6 µM) with P. aeruginosa (setting [8]); 1.7 µg/mL (≈ 3.22 µM) in the test on PCresistant S. aureus; 0.13 µg/mL (≈ 0.246 µM) in test [4] (Gn-II, 5 strains).
For `CO/N=C(\C(=O)NC1C(=O)N2C(C(=O)[O-])=C(C[N+]3(CC(=O)O)CCCC3)CS[C@H]12)c1csc(N)n1` (stereo partly drawn) [Example 16, 7-[(Z)-2-(2-Aminothiazol-4-yl)-2-methoxyiminoacetamido]-3-[1-(carboxymethyl)pyrrolidinio]methyl-3-cephem-4-carboxylate], the MIC in test [1] (setting [5]) was determined as 6.5 µg/mL (≈ 12.4 µM); in test [2], 0.23 µg/mL (≈ 0.438 µM); in test [3], 0.02 µg/mL (≈ 0.0381 µM); in the test on P. aeruginosa (setting [8]) it was 5.1 µg/mL (≈ 9.72 µM); in the test with PCresistant S. aureus, 17 µg/mL (≈ 32.4 µM); in test [4] it was 0.14 µg/mL (≈ 0.267 µM).
For `CO/N=C(\C(=O)NC1C(=O)N2C(C(=O)[O-])=C(C[N+]3(C)CCSC3)CSC12)c1csc(N)n1` (single isomer, unassigned) [13 Isomer A], the minimum inhibitory concentration (MIC) in test [1] (setting [5]) worked out at 0.84 µg/mL (≈ 1.68 µM); in test [3] (setting [6]), 0.046 µg/mL (≈ 0.0923 µM); in the test with P. aeruginosa (setting [8]), 5.9 µg/mL (≈ 11.8 µM); with PCresistant S. aureus it was 3.1 µg/mL (≈ 6.22 µM). In addition, the “Geometric Mean of MIC” value worked out at 0.28 µg/mL in test [2] (setting [7]) and 0.28 µg/mL in test [4] (Gn-II, 5 strains).
For `C#CCO/N=C(\C(=O)NC1C(=O)N2C(C(=O)[O-])=C(C[N+]3(C)CCCC3)CSC12)c1csc(N)n1` (stereo not drawn) [Example 18, 7-[(Z)-2-(2-Aminothiazol-4-yl)-2-propargyloxyiminoacetamido]-3-(1-methyl-1-pyrrolidiniomethyl)-3-cephem-4-carboxylate], the MIC in test [1] (setting [5]) was 0.77 µg/mL (≈ 1.53 µM); in test [2], 0.32 µg/mL (≈ 0.634 µM); in test [3] (setting [6]), 0.061 µg/mL (≈ 0.121 µM); in the test with P. aeruginosa (setting [8]) it was 4 µg/mL (≈ 7.93 µM); with PCresistant S. aureus, 2.2 µg/mL (≈ 4.36 µM); in test [4] (Gn-II, 5 strains), 0.36 µg/mL (≈ 0.713 µM).
On to `CO/N=C(\C(=O)NC1C(=O)N2C(C(=O)[O-])=C(C[N+]3(C)CCSC3)CSC12)c1csc(N)n1` (single isomer, unassigned) [13 Isomer B], for which the “Geometric Mean of MIC” value was determined as 0.72 µg/mL in test [1] (setting [9]); 0.13 µg/mL in test [2] (setting [7]); 1.6 µg/mL in the test on PCresistant S. aureus; 0.13 µg/mL in test [4] (Gn-II, 5 strains). In addition, the minimal inhibitory concentration (MIC) in test [3] turned out to be 0.029 µg/mL (≈ 0.0582 µM); in the test with P. aeruginosa it was 2.5 µg/mL (≈ 5.01 µM).
With `CO/N=C(\C(=O)NC1C(=O)N2C(C(=O)[O-])=C(C[N+]3(C)CCCCC3)CS[C@H]12)c1csc(N)n1` (stereo partly drawn) [Example 1, 7-[(Z)-2-(2-Aminothiazol-4-yl)-2-methoxyiminoacetamido]-3-(1-methyl-1-piperidinio)methyl-3-cephem-4-carboxylate], the MIC in test [1] (read-out: Geometric Mean of MIC, Gp-Ia, 5 strains, PC-sensitive S. aureus) was determined as 1.3 µg/mL (≈ 2.63 µM); in test [2] it was 0.14 µg/mL (≈ 0.283 µM); in test [3] (setting [6]), 0.03 µg/mL (≈ 0.0607 µM); in the test with P. aeruginosa (setting [8]), 3.2 µg/mL (≈ 6.47 µM); in the test with PCresistant S. aureus, 2.9 µg/mL (≈ 5.86 µM); in test [4] (Gn-II, 5 strains) it was 0.55 µg/mL (≈ 1.11 µM).
For the molecule `CO/N=C(\C(=O)NC1C(=O)N2C(C(=O)[O-])=C(C[N+]34CCN(CC3)CC4)CS[C@H]12)c1csc(N)n1` (stereo partly drawn) [Example 4, 7-[(Z)-2-(2-Aminothiazol-4-yl)-2-methoxyiminoacetamido]-3-(1,4-diazabicyclo[2,2,2]octan-1-io)methyl-3-cephem-4-carboxylate], the minimum inhibitory concentration (MIC) is 2.9 µg/mL (≈ 5.71 µM) in test [1] (setting [5]); 0.16 µg/mL (≈ 0.315 µM) in test [2]; 0.07 µg/mL (≈ 0.138 µM) in test [3] (setting [6]); 3.6 µg/mL (≈ 7.09 µM) with P. aeruginosa; 5.8 µg/mL (≈ 11.4 µM) in the test with PCresistant S. aureus; 0.8 µg/mL (≈ 1.58 µM) in test [4].
As to `CO/N=C(\C(=O)NC1C(=O)N2C(C(=O)[O-])=C(C[N+]3(C)CCOC3)CSC12)c1csc(N)n1` (single isomer, unassigned) [12 Isomer B], the “Geometric Mean of MIC” value in test [1] (setting [9]) worked out at 1.3 µg/mL; in test [2] (setting [7]), 0.21 µg/mL; in the test with P. aeruginosa (setting [8]), 4.0 µg/mL; in the test with PCresistant S. aureus, 4.4 µg/mL; in test [4] (Gn-II, 5 strains), 0.18 µg/mL. The minimum inhibitory concentration (MIC) in test [3] worked out at 0.04 µg/mL (≈ 0.0829 µM).

These data come from patent US4525473A, “Cephalosporins” (Bristol-Myers Company, priority 1983, dated 1985).
